Data as given in US7442807B2, “N-phenylpyrrole guanidine derivatives as melanocortin receptor ligands” (Action Pharma A/S, priority 2001, dated 2008).

Legend:
MC5 [1] = molecular target: T1, MC5 (Homo sapiens, UniProt P33032); test: Test 2. Affinity for the MC5-receptors (I125-NDP-αMSH binding); conditions: I125-NDP-αMSH as ligand; read-out: Affinity for MC-receptors Ki MC5
Description: (§1) Test 2. Affinity for the MC3-receptors, the MC4-receptors and the MC5-receptors
(§2) The binding assays were carried out essentially as described by Szardenings et al, J Biol Chem 1997; 272; 27943-27948 and Schiöth et al, FEBS Lett 1997; 410; 223-228 using I125-NDP-αMSH as ligand.

MC4 [2] = molecular target: T2, MC4 (Homo sapiens, UniProt P32245); test: Test 2. Affinity for the MC4-receptors (I125-NDP-αMSH binding); conditions: I125-NDP-αMSH as ligand; read-out: Affinity for MC-receptors Ki MC4
Description: as §1, §2

MC3 [3] = molecular target: T3, MC3 (Homo sapiens, UniProt P41968); test: Test 2. Affinity for the MC3-receptors (I125-NDP-αMSH binding); conditions: I125-NDP-αMSH as ligand; read-out: Affinity for MC-receptors Ki MC3
Description: as §1, §2

MC4 [4] = molecular target: T2, MC4; test: Test 3. cAMP stimulation, MC4; format: cell-based; conditions: response relative to α-MSH
Description: (§3) The stimulation of cAMP was carried out essentially as described by Schiöth et al, Br J Pharmacol 1998; 124; 75-82, however, the response is given relative to α-MSH.

MC3 [5] = molecular target: T3, MC3; test: Test 3. cAMP stimulation, MC3; format: cell-based; conditions: response relative to α-MSH
Description: as §3

MC5 [6] = molecular target: T1, MC5; test: Test 3. cAMP stimulation, MC5; format: cell-based; conditions: response relative to α-MSH
Description: as §3

MC1 = MC1 (Homo sapiens, UniProt Q01726); test: Test 3. cAMP stimulation, MC1; format: cell-based; conditions: response relative to α-MSH
Description: as §3

MC1-receptor = MC1-receptor (Mus musculus, UniProt Q01727); test: Test 1. Affinity for the MC1-receptor (I125-NDP-αMSH binding); conditions: I125-NDP-αMSH as ligand; read-out: Affinity for MC-receptors Ki MC1
Source text: Test 1. Affinity for the MC1-receptor
The binding assay was cared out essentially as described by Lunec et al, Melanoma Res 1992; 2; 5-12 using I^125-NDP-αMSH as ligand.

T1 sequence (P33032 whole entry): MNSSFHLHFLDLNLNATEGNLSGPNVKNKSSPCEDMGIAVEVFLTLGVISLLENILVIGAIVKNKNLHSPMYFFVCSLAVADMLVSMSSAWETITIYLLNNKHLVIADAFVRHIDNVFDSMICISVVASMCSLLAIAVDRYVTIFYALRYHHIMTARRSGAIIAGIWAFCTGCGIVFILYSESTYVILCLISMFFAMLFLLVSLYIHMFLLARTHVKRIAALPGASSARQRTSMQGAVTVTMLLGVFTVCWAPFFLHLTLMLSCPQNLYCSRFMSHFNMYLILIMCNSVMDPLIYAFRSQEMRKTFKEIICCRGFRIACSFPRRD
T3 sequence (P41968 whole entry): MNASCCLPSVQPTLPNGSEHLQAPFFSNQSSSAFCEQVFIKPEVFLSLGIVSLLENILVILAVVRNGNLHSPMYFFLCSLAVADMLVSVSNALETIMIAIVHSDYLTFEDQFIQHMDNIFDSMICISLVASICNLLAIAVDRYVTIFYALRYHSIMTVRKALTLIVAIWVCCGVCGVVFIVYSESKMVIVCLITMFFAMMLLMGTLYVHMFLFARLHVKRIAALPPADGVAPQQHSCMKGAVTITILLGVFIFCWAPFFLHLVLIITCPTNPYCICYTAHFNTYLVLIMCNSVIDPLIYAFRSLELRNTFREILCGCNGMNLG
T2 sequence (P32245 whole entry): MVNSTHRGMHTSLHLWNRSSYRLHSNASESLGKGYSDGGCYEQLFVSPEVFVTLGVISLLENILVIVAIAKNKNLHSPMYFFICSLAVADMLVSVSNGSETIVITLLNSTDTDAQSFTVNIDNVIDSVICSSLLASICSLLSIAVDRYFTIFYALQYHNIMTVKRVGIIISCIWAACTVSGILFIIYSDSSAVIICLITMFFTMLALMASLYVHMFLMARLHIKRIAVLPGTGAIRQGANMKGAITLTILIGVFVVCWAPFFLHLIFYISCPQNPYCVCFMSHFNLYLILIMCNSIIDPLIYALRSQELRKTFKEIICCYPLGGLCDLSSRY
Sequence of MC1-receptor (Q01727 whole entry): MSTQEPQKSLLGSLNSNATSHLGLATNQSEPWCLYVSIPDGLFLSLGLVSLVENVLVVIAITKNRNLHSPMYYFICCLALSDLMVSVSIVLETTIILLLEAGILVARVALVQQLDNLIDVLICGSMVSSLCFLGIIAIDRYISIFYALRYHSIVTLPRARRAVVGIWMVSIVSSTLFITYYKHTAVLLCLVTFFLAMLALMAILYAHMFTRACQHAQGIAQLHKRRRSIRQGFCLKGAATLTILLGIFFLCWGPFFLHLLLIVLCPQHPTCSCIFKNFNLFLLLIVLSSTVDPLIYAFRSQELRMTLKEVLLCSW
Sequence of MC1 (Q01726 whole entry): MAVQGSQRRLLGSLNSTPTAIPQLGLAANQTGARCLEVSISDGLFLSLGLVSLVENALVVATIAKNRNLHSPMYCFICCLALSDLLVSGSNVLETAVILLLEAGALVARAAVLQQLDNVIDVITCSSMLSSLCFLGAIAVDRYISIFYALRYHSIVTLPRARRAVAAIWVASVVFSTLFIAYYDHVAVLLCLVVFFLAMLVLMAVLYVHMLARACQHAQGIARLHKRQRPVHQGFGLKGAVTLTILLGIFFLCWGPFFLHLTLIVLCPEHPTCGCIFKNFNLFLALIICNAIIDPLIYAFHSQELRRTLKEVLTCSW

Ki (MC5 [1]) | Ki (MC4 [2]) | Compound | Ki (MC3 [3]) | Influence on cAMP: cAMP agonist/plateau stim. α-MSH (%) MC4 (MC4 [4]) | Influence on cAMP: cAMP agonist/plateau stim. α-MSH (%) MC3 (MC3 [5]) | Influence on cAMP: cAMP agonist/plateau stim. α-MSH (%) MC5 (MC5 [6]) | Influence on cAMP: cAMP agonist/plateau stim. α-MSH (%) MC1 (MC1) | Ki (MC1-receptor)
7.8 µM | 0.07 µM | N=C(N)NN=Cc1cccn1-c1ccc(C(F)(F)F)cc1 [Compound 48, N-[(1-(4-Trifluoromethylphenyl)-1H-pyrrol-2-yl)methyleneamino]guanidine] |  |  |  |  |  | 
7.52 µM | 3.6 µM | N=C(N)NN=Cc1cccn1-c1cc(Cl)cc(Cl)c1 [Compound 50, N-[(1-(3,5-dichlorophenyl)-1H-pyrrol-2-yl)methyleneamino]guanidine] | 12.8 µM | 36% |  |  |  | 

Compound | Ki (MC5 [1]) | Ki (MC4 [2]) | Ki (MC3 [3]) | Influence on cAMP: cAMP agonist/plateau stim. α-MSH (%) MC4 (MC4 [4]) | Influence on cAMP: cAMP agonist/plateau stim. α-MSH (%) MC3 (MC3 [5]) | Influence on cAMP: cAMP agonist/plateau stim. α-MSH (%) MC5 (MC5 [6]) | Influence on cAMP: cAMP agonist/plateau stim. α-MSH (%) MC1 (MC1) | Ki (MC1-receptor)
N-{1-[(4-Chlorophenyl)-1H-Pyrrol-2-yl]methylene-amino}guanidine [Compound 1] | 17.5 µM | 5.1 µM | 15.6 µM | 118% | 35% | 6% | 30% | 0.42 µM
